Source: patent US20230310428A1, “EGFR INHIBITOR AND PREPARATION METHOD AND USE THEREOF” (HONGYUN BIOTECH CO., LTD., priority 2020, published 2023)
pIC50: −log10 of the molar value.

Legend:
Experiment in all cases: Growth inhibitory activity of compounds on BaF3 cell lines stably transfected with kinase (MTS, 48 h)
Format in all cases: cell-based
[1] = target: T1, various mutants of kinase EGFR (BaF3 cell lines stably transfected with kinase) (Homo sapiens, UniProt P00533, C797S/L858R/T790M); conditions: BaF3 cell line stably transfected with EGFR L858R/T790M/C797S, read-out: L858R/T790M/ C797S growth inhibitory activity IC50
T1 construct: expressed in transfected cells; host or cells: BaF3
Summary of the method: (§1)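 First, cells were seeded and treated with an eight-point threefold dilution series starting at 10 µM (0.1% DMSO). After 48 h at 37 °C, MTS reagent was added for 1-4 h before absorbance at 490 nm. Inhibition rates gave the IC50.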

[2] = target: T2, various mutants of kinase EGFR (BaF3 cell lines stably transfected with kinase) (Homo sapiens, UniProt P00533); conditions: BaF3 cell line stably transfected with EGFR Δ19Del, read-out: Δ19Del growth inhibitory activity IC50
T2 construct: other: BaF3 cells stably transfected with EGFR Δ19Del; MTS, 48 h; other: BaF3 cell line stably transfected with EGFR Δ19Del
Summary of the method: as §1

[3] = target: T3, various mutants of kinase EGFR (BaF3 cell lines stably transfected with kinase) (Homo sapiens, UniProt P00533, L858R); conditions: BaF3 cell line stably transfected with EGFR L858R, read-out: L858R growth inhibitory activity IC50
T3 construct: expressed in transfected cells; host or cells: BaF3
Summary of the method: as §1

[4] = target: T4, various mutants of kinase EGFR (BaF3 cell lines stably transfected with kinase) (Homo sapiens, UniProt P00533, T790M, form not given); conditions: BaF3 cell line stably transfected with EGFR Δ19Del/T790M, read-out: Δ19Del/ T790M growth inhibitory activity IC50
T4 construct: other: BaF3 cells stably transfected with EGFR Δ19Del/T790M; MTS, 48 h; other: BaF3 cell line stably transfected with EGFR Δ19Del/T790M; MTS, 48
Summary of the method: as §1

[5] = target: T5, various mutants of kinase EGFR (BaF3 cell lines stably transfected with kinase) (Homo sapiens, UniProt P00533, L858R/T790M); conditions: BaF3 cell line stably transfected with EGFR L858R/T790M, read-out: L858R/ T790M growth inhibitory activity IC50
T5 construct: expressed in transfected cells; host or cells: BaF3
Summary of the method: as §1

[6] = target: T6, various mutants of kinase EGFR (BaF3 cell lines stably transfected with kinase) (Homo sapiens, UniProt P00533, T790M/C797S, form not given); conditions: BaF3 cell line stably transfected with EGFR Δ19Del/T790M/C797S, read-out: Δ19Del/T790M/ C797S growth inhibitory activity IC50
T6 construct: other: BaF3 cells stably transfected with EGFR Δ19Del/T790M/C797S; MTS, 48; other: BaF3 cell line stably transfected with EGFR Δ19Del/T790M/C7
Summary of the method: as §1

T6 sequence (P00533 with tags, fused parts or gaps DEL746-750/T790M/C797S, form open): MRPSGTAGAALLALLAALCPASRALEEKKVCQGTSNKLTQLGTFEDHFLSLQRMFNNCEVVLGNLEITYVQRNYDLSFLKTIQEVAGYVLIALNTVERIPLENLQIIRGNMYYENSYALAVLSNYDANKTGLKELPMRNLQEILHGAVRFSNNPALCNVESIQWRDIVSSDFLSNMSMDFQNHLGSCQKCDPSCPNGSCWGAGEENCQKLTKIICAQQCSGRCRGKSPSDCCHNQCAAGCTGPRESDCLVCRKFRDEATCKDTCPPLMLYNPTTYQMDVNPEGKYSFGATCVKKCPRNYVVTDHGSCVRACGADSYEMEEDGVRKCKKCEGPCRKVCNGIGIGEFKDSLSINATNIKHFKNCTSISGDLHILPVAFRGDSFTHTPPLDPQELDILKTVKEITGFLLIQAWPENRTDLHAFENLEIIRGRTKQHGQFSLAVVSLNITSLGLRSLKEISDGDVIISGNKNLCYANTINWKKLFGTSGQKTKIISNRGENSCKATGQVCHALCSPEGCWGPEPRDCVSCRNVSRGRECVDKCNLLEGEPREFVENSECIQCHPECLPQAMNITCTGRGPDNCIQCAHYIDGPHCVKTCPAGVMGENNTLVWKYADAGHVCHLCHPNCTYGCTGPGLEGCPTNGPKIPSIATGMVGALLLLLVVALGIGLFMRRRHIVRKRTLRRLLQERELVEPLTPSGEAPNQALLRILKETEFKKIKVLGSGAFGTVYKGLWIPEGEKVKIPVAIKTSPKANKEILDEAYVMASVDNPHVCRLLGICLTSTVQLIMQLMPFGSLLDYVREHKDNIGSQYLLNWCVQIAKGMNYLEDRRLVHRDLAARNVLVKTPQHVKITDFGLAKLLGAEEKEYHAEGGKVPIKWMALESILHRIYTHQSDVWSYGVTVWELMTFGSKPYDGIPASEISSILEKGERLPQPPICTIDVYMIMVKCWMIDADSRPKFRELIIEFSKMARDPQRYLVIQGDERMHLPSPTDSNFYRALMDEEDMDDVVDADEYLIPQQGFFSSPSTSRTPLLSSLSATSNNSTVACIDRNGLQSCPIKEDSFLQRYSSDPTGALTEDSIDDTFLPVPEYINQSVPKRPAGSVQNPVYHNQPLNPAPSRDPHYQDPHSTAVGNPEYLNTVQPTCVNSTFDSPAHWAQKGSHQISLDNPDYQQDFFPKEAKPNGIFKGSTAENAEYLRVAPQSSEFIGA
T5 sequence (P00533 25-1210 T790M/L858R): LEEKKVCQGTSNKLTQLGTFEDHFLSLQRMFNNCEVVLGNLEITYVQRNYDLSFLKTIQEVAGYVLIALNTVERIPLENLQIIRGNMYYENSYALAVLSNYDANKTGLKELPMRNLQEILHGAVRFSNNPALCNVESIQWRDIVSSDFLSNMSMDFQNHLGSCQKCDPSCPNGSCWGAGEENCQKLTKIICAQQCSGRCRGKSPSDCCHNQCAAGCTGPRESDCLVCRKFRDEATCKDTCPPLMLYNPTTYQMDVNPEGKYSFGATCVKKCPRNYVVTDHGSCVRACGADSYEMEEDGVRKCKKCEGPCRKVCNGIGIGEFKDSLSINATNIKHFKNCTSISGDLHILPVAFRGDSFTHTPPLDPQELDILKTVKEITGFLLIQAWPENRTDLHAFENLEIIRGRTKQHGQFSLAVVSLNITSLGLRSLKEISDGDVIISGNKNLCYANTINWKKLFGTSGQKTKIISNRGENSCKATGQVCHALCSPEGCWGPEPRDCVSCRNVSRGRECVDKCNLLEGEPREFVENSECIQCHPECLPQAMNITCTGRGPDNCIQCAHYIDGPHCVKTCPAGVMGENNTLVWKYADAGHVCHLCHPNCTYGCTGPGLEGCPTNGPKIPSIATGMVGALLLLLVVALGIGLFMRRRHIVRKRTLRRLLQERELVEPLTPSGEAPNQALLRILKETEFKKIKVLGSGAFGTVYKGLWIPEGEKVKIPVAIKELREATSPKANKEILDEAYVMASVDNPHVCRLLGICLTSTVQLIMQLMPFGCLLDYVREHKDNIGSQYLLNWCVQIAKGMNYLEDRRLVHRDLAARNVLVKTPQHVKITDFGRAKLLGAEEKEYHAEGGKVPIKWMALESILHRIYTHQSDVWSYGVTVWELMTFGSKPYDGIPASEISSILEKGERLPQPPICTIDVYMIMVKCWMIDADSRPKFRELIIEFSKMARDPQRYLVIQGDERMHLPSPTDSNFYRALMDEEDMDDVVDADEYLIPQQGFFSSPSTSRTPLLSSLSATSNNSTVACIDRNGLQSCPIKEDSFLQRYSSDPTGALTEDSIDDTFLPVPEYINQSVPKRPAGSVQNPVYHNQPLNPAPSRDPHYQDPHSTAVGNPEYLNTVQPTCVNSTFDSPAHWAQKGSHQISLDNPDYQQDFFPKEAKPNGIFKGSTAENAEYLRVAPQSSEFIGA
T1 sequence (P00533 25-1210 T790M/C797S/L858R): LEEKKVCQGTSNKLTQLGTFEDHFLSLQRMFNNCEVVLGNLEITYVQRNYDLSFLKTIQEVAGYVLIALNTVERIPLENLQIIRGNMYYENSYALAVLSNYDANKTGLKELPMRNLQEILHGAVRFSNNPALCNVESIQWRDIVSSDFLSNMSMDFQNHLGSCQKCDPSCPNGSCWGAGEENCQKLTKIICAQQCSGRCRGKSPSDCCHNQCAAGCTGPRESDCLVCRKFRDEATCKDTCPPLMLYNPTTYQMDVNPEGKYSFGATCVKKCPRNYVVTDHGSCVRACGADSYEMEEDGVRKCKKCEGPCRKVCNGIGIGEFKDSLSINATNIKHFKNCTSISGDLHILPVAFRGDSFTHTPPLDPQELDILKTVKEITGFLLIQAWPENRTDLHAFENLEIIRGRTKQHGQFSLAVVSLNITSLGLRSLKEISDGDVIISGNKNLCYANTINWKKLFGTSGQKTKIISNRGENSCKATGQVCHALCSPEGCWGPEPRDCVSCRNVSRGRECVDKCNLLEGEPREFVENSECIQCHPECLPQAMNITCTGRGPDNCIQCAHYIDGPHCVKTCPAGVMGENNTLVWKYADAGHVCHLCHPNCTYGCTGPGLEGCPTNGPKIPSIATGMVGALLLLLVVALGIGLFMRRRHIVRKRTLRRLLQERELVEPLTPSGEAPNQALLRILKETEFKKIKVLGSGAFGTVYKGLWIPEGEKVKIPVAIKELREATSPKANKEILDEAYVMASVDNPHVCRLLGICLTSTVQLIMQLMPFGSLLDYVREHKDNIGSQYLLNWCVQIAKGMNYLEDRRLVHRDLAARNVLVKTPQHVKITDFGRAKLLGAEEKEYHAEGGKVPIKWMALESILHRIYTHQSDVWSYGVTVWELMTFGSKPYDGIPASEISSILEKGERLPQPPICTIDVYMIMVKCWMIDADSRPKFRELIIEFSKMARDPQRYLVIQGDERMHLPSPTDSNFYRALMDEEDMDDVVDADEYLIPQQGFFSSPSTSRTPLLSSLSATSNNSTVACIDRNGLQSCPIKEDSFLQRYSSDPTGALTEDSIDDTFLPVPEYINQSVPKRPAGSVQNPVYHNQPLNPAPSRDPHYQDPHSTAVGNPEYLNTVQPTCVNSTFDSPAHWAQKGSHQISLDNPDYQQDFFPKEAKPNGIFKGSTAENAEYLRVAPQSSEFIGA
T2 sequence (P00533 with tags, fused parts or gaps DEL746-750): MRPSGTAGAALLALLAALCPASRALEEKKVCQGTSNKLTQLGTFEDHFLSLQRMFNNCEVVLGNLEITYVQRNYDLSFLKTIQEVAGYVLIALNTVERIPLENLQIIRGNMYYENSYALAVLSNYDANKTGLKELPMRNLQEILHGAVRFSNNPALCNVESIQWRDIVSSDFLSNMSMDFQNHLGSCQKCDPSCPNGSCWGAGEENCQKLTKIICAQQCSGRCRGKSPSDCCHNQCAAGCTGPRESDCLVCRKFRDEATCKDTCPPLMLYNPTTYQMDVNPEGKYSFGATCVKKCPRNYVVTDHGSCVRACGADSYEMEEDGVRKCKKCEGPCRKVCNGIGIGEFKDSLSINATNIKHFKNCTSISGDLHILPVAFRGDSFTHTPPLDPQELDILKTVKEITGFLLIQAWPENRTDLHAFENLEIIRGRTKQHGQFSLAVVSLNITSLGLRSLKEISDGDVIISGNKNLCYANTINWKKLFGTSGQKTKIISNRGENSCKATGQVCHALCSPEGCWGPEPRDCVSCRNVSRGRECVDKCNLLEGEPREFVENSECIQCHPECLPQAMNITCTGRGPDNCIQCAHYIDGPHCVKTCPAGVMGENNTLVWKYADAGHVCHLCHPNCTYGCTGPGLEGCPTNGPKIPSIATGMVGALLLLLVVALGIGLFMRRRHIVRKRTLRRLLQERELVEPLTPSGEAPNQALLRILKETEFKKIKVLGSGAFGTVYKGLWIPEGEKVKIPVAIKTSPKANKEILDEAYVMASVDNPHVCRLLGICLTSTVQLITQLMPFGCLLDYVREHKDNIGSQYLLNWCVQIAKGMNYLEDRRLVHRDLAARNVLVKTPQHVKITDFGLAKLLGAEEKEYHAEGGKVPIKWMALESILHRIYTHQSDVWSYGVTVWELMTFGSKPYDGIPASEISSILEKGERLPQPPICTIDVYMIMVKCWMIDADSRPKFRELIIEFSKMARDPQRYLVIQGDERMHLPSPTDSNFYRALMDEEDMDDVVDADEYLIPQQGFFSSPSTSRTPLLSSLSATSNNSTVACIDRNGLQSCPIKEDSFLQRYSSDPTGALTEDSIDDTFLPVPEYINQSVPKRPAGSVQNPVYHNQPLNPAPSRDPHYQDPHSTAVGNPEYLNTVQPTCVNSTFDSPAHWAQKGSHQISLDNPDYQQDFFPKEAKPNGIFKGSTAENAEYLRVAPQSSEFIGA

SMILES | pIC50 [1] | pIC50 [2] | pIC50 [3] | pIC50 [4] | pIC50 [5] | pIC50 [6]
CCc1cc(Nc2nc(Nc3ccc4nccnc4c3N(C)S(C)(=O)=O)c3sccc3n2)c(OC)cc1N1CCN(C)CC1 [II-1-15] | 6.30 to 7.30 | 5.60 to 6.30 | 5.60 to 6.30 | 5.60 to 6.30 | 5.60 to 6.30 | 6.30 to 7.30
CCc1cc(Nc2nc(Nc3ccc4nccnc4c3N(C)S(C)(=O)=O)c3sccc3n2)c(OC)cc1N1CCC(N(C)C)CC1 [II-1-16] | 6.30 to 7.30 | 5.60 to 6.30 | 6.30 to 7.30 | 6.30 to 7.30 | 6.30 to 7.30 | ≥ 7.30
CCc1cc(Nc2nc(Nc3ccc4nccnc4c3N(C)S(C)(=O)=O)c3sccc3n2)c(OC)cc1N1CCC(N(C)C)C1 (stereo not drawn) [II-1-17] | 6.30 to 7.30 | 6.30 to 7.30 | 6.30 to 7.30 | 6.30 to 7.30 | 6.30 to 7.30 | 6.30 to 7.30
COc1cc(N2CCC(N3CCN(C)CC3)CC2)c(C)cc1Nc1nc(Nc2ccc3nccnc3c2N(C)S(C)(=O)=O)c2[nH]ccc2n1 [II-1-19] | 5.60 to 6.30 | 5.60 to 6.30 | 5.60 to 6.30 | 5.60 to 6.30 | 6.30 to 7.30 | 5.60 to 6.30
CCc1cc(Nc2nc(Nc3ccc4nccnc4c3N(C)S(C)(=O)=O)c3[nH]ccc3n2)c(OC)cc1N1CCC(N2CCN(C)CC2)CC1 [II-1-20] | 5.60 to 6.30 | 5.60 to 6.30 | 6.30 to 7.30 | 5.60 to 6.30 | 6.30 to 7.30 | 6.30 to 7.30
CCc1cc(Nc2nc(Nc3ccc4nccnc4c3N(C)S(C)(=O)=O)c3[nH]ccc3n2)c(OC)nc1N1CCC(N2CCN(C)CC2)CC1 [II-1-21] | 6.30 to 7.30 | 6.30 to 7.30 | 6.30 to 7.30 | 6.30 to 7.30 | 5.60 to 6.30 | 6.30 to 7.30
CCc1cc(Nc2nc(Nc3ccc4nccnc4c3N(C)S(C)(=O)=O)c3[nH]ccc3n2)c(OC(F)(F)F)cc1N1CCC(N2CCN(C)CC2)CC1 [II-1-22] | 6.30 to 7.30 | 6.30 to 7.30 | 5.60 to 6.30 | 6.30 to 7.30 | 6.30 to 7.30 | 6.30 to 7.30
C=Cc1cc(Nc2nc(Nc3ccc4nccnc4c3N(C)S(C)(=O)=O)c3[nH]ccc3n2)c(OC(F)(F)F)cc1N1CCC(N2CCN(C)CC2)CC1 [II-1-23] | 6.30 to 7.30 | 6.30 to 7.30 | 6.30 to 7.30 | 6.30 to 7.30 | 6.30 to 7.30 | ≥ 7.30
COc1cc(N2CCC(N3CCN(C)CC3)CC2)ccc1Nc1nc(Nc2ccc3nccnc3c2N(C)S(C)(=O)=O)c2occc2n1 [II-1-24] | 5.60 to 6.30 | 5.60 to 6.30 | 5.60 to 6.30 | 5.60 to 6.30 | 5.60 to 6.30 | 5.60 to 6.30
COc1cc(N2CCC(N3CCN(C)CC3)CC2)c(C)cc1Nc1nc(Nc2ccc3nccnc3c2N(C)S(C)(=O)=O)c2occc2n1 [II-1-25] | 6.30 to 7.30 | 6.30 to 7.30 | 6.30 to 7.30 | 6.30 to 7.30 | 6.30 to 7.30 | ≥ 7.30
CCc1cc(Nc2nc(Nc3ccc4nccnc4c3N(C)S(C)(=O)=O)c3occc3n2)c(OC)cc1N1CCC(N2CCN(C)CC2)CC1 [II-1-26] | ≥ 7.30 | 6.30 to 7.30 | 6.30 to 7.30 | ≥ 7.30 | ≥ 7.30 | ≥ 7.30
COc1nc(N2CCC(N3CCN(C)CC3)CC2)ccc1Nc1nc(Nc2ccc3nccnc3c2N(C)S(C)(=O)=O)c2[nH]ccc2n1 [II-1-27] | 5.60 to 6.30 | 5.60 to 6.30 | 5.60 to 6.30 | 5.60 to 6.30 | 5.60 to 6.30 | 5.60 to 6.30
COc1nc(N2CCC(N3CCN(C)CC3)CC2)c(C)cc1Nc1nc(Nc2ccc3nccnc3c2N(C)S(C)(=O)=O)c2[nH]ccc2n1 [II-1-28] | 5.60 to 6.30 | 5.60 to 6.30 | 5.60 to 6.30 | 5.60 to 6.30 | 5.60 to 6.30 | 5.60 to 6.30
CN1CCN(C2CCN(c3ccc(Nc4nc(Nc5ccc6nccnc6c5N(C)S(C)(=O)=O)c5[nH]ccc5n4)c(OC(F)(F)F)c3)CC2)CC1 [II-1-29] | 5.60 to 6.30 | 5.60 to 6.30 | 5.60 to 6.30 | 5.60 to 6.30 | 5.60 to 6.30 | 6.30 to 7.30
COc1cc(N2CCC(N(C)C)CC2)c(C)cc1Nc1nc(Nc2ccc3nccnc3c2N(C)S(C)(=O)=O)c2[nH]ccc2n1 [II-1-31] | 5.60 to 6.30 | 5.60 to 6.30 | 5.60 to 6.30 | 5.60 to 6.30 | 5.60 to 6.30 | 6.30 to 7.30
CCc1cc(Nc2nc(Nc3ccc4nccnc4c3N(C)S(C)(=O)=O)c3[nH]ccc3n2)c(OC)cc1N1CCC(N(C)C)CC1 [II-1-32] | 6.30 to 7.30 | 5.60 to 6.30 | 5.60 to 6.30 | 5.60 to 6.30 | 6.30 to 7.30 | 6.30 to 7.30
COc1cc(N2CCN(C)CC2)c(C)cc1Nc1nc(Nc2ccc3nccnc3c2N(C)S(C)(=O)=O)c2[nH]ccc2n1 [II-1-33] | 5.60 to 6.30 | 5.60 to 6.30 | 5.60 to 6.30 | 5.60 to 6.30 | 5.60 to 6.30 | 5.60 to 6.30
CCc1cc(Nc2nc(Nc3ccc4nccnc4c3N(C)S(C)(=O)=O)c3[nH]ccc3n2)c(OC)cc1N1CCN(C)CC1 [II-1-34] | 5.60 to 6.30 | 5.60 to 6.30 | 5.60 to 6.30 | 6.30 to 7.30 | 5.60 to 6.30 | 6.30 to 7.30
COc1cc(N2CCC(N(C)C)C2)c(C)cc1Nc1nc(Nc2ccc3nccnc3c2N(C)S(C)(=O)=O)c2[nH]ccc2n1 (stereo not drawn) [II-1-35] | 5.60 to 6.30 | 5.60 to 6.30 | 5.60 to 6.30 | 5.60 to 6.30 | 5.60 to 6.30 | 5.60 to 6.30
CCc1cc(Nc2nc(Nc3ccc4nccnc4c3N(C)S(C)(=O)=O)c3[nH]ccc3n2)c(OC)cc1N1CCC(N(C)C)C1 (stereo not drawn) [II-1-36] | 5.60 to 6.30 | 5.60 to 6.30 | 5.60 to 6.30 | 5.60 to 6.30 | 5.60 to 6.30 | 5.60 to 6.30
CCc1cc(Nc2nc(Nc3ccc4nccnc4c3N(C)S(C)(=O)=O)c3occc3n2)c(OC)nc1N1CCC(N2CCN(C)CC2)CC1 [II-1-39] | 6.30 to 7.30 | 5.60 to 6.30 | 5.60 to 6.30 | 6.30 to 7.30 | 6.30 to 7.30 | ≥ 7.30
CN1CCN(C2CCN(c3ccc(Nc4nc(Nc5ccc6nccnc6c5N(C)S(C)(=O)=O)c5occc5n4)c(OC(F)(F)F)c3)CC2)CC1 [II-1-40] | 5.60 to 6.30 | 5.60 to 6.30 | 5.60 to 6.30 | 6.30 to 7.30 | 5.60 to 6.30 | 5.60 to 6.30
CCc1cc(Nc2nc(Nc3ccc4nccnc4c3N(C)S(C)(=O)=O)c3occc3n2)c(OC(F)(F)F)cc1N1CCC(N2CCN(C)CC2)CC1 [II-1-41] | 6.30 to 7.30 | 5.60 to 6.30 | 6.30 to 7.30 | 5.60 to 6.30 | 5.60 to 6.30 | 6.30 to 7.30
C=Cc1cc(Nc2nc(Nc3ccc4nccnc4c3N(C)S(C)(=O)=O)c3occc3n2)c(OC(F)(F)F)cc1N1CCC(N2CCN(C)CC2)CC1 [II-1-42] | 6.30 to 7.30 | 6.30 to 7.30 | 6.30 to 7.30 | 6.30 to 7.30 | 6.30 to 7.30 | 6.30 to 7.30
COc1cc(N2CCC(N3CCN(C)CC3)CC2)c(CC2CC2)cc1Nc1nc(Nc2ccc3nccnc3c2N(C)S(C)(=O)=O)c2occc2n1 [II-1-43] | 6.30 to 7.30 | 5.60 to 6.30 | 6.30 to 7.30 | 5.60 to 6.30 | 6.30 to 7.30 | 6.30 to 7.30
COc1cc(N2CCC(N3CCN(C)CC3)CC2)c(Cc2ccccc2)cc1Nc1nc(Nc2ccc3nccnc3c2N(C)S(C)(=O)=O)c2occc2n1 [II-1-44] | 5.60 to 6.30 | 5.60 to 6.30 | 5.60 to 6.30 | 6.30 to 7.30 | 5.60 to 6.30 | 5.60 to 6.30
COc1ccc(N2CCC(O)CC2)cc1Nc1nc(Nc2ccc3nccnc3c2N(C)S(C)(=O)=O)c2sccc2n1 [II-1-45] | 6.30 to 7.30 | 5.60 to 6.30 | 6.30 to 7.30 | 6.30 to 7.30 | 6.30 to 7.30 | ≥ 7.30
COc1cc(N2CCC(N3CCN(C)CC3)CC2)c(C)cc1Nc1nc(Nc2ccc3nccnc3c2N(C)S(C)(=O)=O)c2ccsc2n1 [II-2-1] | 5.60 to 6.30 | 5.60 to 6.30 | 5.60 to 6.30 | 5.60 to 6.30 | 5.60 to 6.30 | 6.30 to 7.30
CCc1cc(Nc2nc(Nc3ccc4nccnc4c3N(C)S(C)(=O)=O)c3ccsc3n2)c(OC(F)(F)F)cc1N1CCC(N2CCN(C)CC2)CC1 [II-2-4] | 5.60 to 6.30 | 5.60 to 6.30 | 5.60 to 6.30 | 5.60 to 6.30 | 5.60 to 6.30 | 5.60 to 6.30
